Results taken from patent US20250230193A1, “CYCLIC COMPOUND HAVING SELECTIVE KRAS INHIBITORY EFFECT ON HRAS AND NRAS” (CHUGAI SEIYAKU KABUSHIKI KAISHA, priority 2022, published 2025).

Key:
[1] = target: GDP-bound NRAS wild-type protein (Homo sapiens, UniProt P01111); experiment: Binding to NRAS by surface plasmon resonance (SPR), Single Cycle Kinetics; details: KD ratio NRAS/KRAS, class symbols
[2] = target: GDP-bound HRAS wild-type protein (Homo sapiens, UniProt P01112); experiment: Binding to HRAS by surface plasmon resonance (SPR), Single Cycle Kinetics; details: KD ratio HRAS/KRAS, class symbols
GDP-bound HRAS wild-type protein, sequence (P01112 whole entry): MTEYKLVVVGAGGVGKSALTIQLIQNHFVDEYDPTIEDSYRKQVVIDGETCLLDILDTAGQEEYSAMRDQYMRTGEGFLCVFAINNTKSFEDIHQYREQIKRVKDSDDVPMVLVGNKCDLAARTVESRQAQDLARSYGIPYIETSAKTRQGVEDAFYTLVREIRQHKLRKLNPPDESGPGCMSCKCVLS

GDP-bound NRAS wild-type protein, sequence (P01111 whole entry): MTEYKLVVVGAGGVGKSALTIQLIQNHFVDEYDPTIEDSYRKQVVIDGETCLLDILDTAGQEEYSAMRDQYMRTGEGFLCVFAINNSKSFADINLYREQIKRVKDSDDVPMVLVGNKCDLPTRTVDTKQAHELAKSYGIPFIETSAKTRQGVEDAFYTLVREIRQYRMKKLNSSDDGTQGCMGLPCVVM

## CCC[C@H]1C(=O)N[C@@H](CC(C)C)C(=O)N(CC)CC(=O)N(C)[C@H]2C/C=C\CCN(C2=O)[C@@H](Cc2ccc(C)cc2)C(=O)N(C)CC(=O)N[C@@H](CCc2ccc(C(F)(F)F)c(OC)c2)C(=O)N2C[C@H](OCC)C[C@H]2C(=O)NC2(CCC2)C(=O)N(C)[C@@H](C2CCCC2)C(=O)N(C)[C@H](C(=O)N(C)C)CC(=O)N1C [PP2540]
[1]
  NRAS/KRAS (ratio of KD value with respect to GDP-bound NRAS wild-type protein to KD value with respect to KRAS): A (a compound having 10 or more and less than 20 is denoted as A)
[2]
  HRAS/KRAS (ratio of KD value with respect to GDP-bound HRAS wild-type protein to KD value with respect to KRAS): B (a compound having 3 or more and less than 10 is denoted as B)

## CCC[C@H]1C(=O)N[C@@H](CC(C)C)C(=O)N(CCOC)CC(=O)N(C)[C@H]2C/C=C\CCN(C2=O)[C@@H](Cc2ccc(C)cc2)C(=O)N(C)CC(=O)N[C@@H](CCc2cc(F)c(C(F)(F)F)c(F)c2)C(=O)N2C[C@H](OCC)C[C@H]2C(=O)NC2(CCC2)C(=O)N(C)[C@@H](C2CCCC2)C(=O)N(C)[C@H](C(=O)N(C)C)CC(=O)N1C [PP2541]
[1]
  NRAS/KRAS (ratio of KD value with respect to GDP-bound NRAS wild-type protein to KD value with respect to KRAS): A (a compound having 10 or more and less than 20 is denoted as A)
[2]
  HRAS/KRAS (ratio of KD value with respect to GDP-bound HRAS wild-type protein to KD value with respect to KRAS): B (a compound having 3 or more and less than 10 is denoted as B)

## CCC[C@H]1C(=O)N[C@@H](CC(C)C)C(=O)N(CCOC)CC(=O)N(C)[C@H]2C/C=C\CCN(C2=O)[C@@H](Cc2ccc(C)cc2)C(=O)N(C)CC(=O)N[C@@H](CCc2ccc(C(F)(F)F)c(OC)c2)C(=O)N2C[C@H](OCC)C[C@H]2C(=O)NC2(CCC2)C(=O)N(C)[C@@H](C2CCCC2)C(=O)N(C)[C@H](C(=O)N(C)C)CC(=O)N1C [PP2542]
[1]
  NRAS/KRAS (ratio of KD value with respect to GDP-bound NRAS wild-type protein to KD value with respect to KRAS): B (a compound having 3 or more and less than 10 is denoted as B)
[2]
  HRAS/KRAS (ratio of KD value with respect to GDP-bound HRAS wild-type protein to KD value with respect to KRAS): B (a compound having 3 or more and less than 10 is denoted as B)

## CCC[C@H]1C(=O)N[C@@H](CC(C)C)C(=O)N(CC)CC(=O)N(C)[C@H]2C/C=C\CCN(C2=O)[C@@H](Cc2ccc(C)cc2)C(=O)N(C)CC(=O)N[C@@H](CCc2ccc(C(F)(F)F)c(Cl)c2)C(=O)N2C[C@H](OCC)C[C@H]2C(=O)NC2(CCC2)C(=O)N(C)[C@@H](C2CCCC2)C(=O)N(C)[C@H](C(=O)N(C)C)CC(=O)N1C [PP2545]
[1]
  NRAS/KRAS (ratio of KD value with respect to GDP-bound NRAS wild-type protein to KD value with respect to KRAS): A (a compound having 10 or more and less than 20 is denoted as A)
[2]
  HRAS/KRAS (ratio of KD value with respect to GDP-bound HRAS wild-type protein to KD value with respect to KRAS): A (a compound having 10 or more and less than 20 is denoted as A)

## CCC[C@H]1C(=O)N[C@@H](CC(C)C)C(=O)N(CCOC)CC(=O)N(C)[C@H]2C/C=C\CCN(C2=O)[C@@H](Cc2ccc(C)cc2)C(=O)N(C)CC(=O)N[C@@H](CCc2ccc(C(F)(F)F)c(Cl)c2)C(=O)N2C[C@H](OCC)C[C@H]2C(=O)NC2(CCC2)C(=O)N(C)[C@@H](C2CCCC2)C(=O)N(C)[C@H](C(=O)N(C)C)CC(=O)N1C [PP2546]
[1]
  NRAS/KRAS (ratio of KD value with respect to GDP-bound NRAS wild-type protein to KD value with respect to KRAS): B (a compound having 3 or more and less than 10 is denoted as B)
[2]
  HRAS/KRAS (ratio of KD value with respect to GDP-bound HRAS wild-type protein to KD value with respect to KRAS): B (a compound having 3 or more and less than 10 is denoted as B)

## CCC[C@H]1C(=O)N[C@@H](CC(C)C)C(=O)N2C[C@@H](OC)C[C@H]2C(=O)N(C)[C@H]2C/C=C\CCN(C2=O)[C@@H](Cc2ccc(C)cc2)C(=O)N(C)CC(=O)N[C@@H](CCc2cc(F)c(C(F)(F)F)c(F)c2)C(=O)N2C[C@H](OCC)C[C@H]2C(=O)NC2(CCC2)C(=O)N(C)[C@@H](C2CCCC2)C(=O)N(C)[C@H](C(=O)N(C)C)CC(=O)N1C [PP2547]
[1]
  NRAS/KRAS (ratio of KD value with respect to GDP-bound NRAS wild-type protein to KD value with respect to KRAS): A (a compound having 10 or more and less than 20 is denoted as A)
[2]
  HRAS/KRAS (ratio of KD value with respect to GDP-bound HRAS wild-type protein to KD value with respect to KRAS): B (a compound having 3 or more and less than 10 is denoted as B)

## CCC[C@H]1C(=O)N[C@@H](CC(C)C)C(=O)N2C[C@@H](OC)C[C@H]2C(=O)N(C)[C@H]2C/C=C\CCN(C2=O)[C@@H](Cc2ccc(C)cc2)C(=O)N(C)CC(=O)N[C@@H](CCc2ccc(C(F)(F)F)c(OC)c2)C(=O)N2C[C@H](OCC)C[C@H]2C(=O)NC2(CCC2)C(=O)N(C)[C@@H](C2CCCC2)C(=O)N(C)[C@H](C(=O)N(C)C)CC(=O)N1C [PP2548]
[1]
  NRAS/KRAS (ratio of KD value with respect to GDP-bound NRAS wild-type protein to KD value with respect to KRAS): A (a compound having 10 or more and less than 20 is denoted as A)
[2]
  HRAS/KRAS (ratio of KD value with respect to GDP-bound HRAS wild-type protein to KD value with respect to KRAS): B (a compound having 3 or more and less than 10 is denoted as B)

## CCC[C@H]1C(=O)N[C@@H](CC(C)C)C(=O)N2C[C@@H](OC)C[C@H]2C(=O)N(C)[C@H]2C/C=C\CCN(C2=O)[C@@H](Cc2ccc(C)cc2)C(=O)N(C)CC(=O)N[C@@H](CCc2ccc(C(F)(F)F)c(Cl)c2)C(=O)N2C[C@H](OCC)C[C@H]2C(=O)NC2(CCC2)C(=O)N(C)[C@@H](C2CCCC2)C(=O)N(C)[C@H](C(=O)N(C)C)CC(=O)N1C [PP2549]
[1]
  NRAS/KRAS (ratio of KD value with respect to GDP-bound NRAS wild-type protein to KD value with respect to KRAS): A (a compound having 10 or more and less than 20 is denoted as A)
[2]
  HRAS/KRAS (ratio of KD value with respect to GDP-bound HRAS wild-type protein to KD value with respect to KRAS): B (a compound having 3 or more and less than 10 is denoted as B)

## CCC[C@H]1C(=O)N[C@@H]([C@@H](C)CC)C(=O)N2C[C@@H](OC)C[C@H]2C(=O)N(C)[C@H]2C/C=C\CCN(C2=O)[C@@H](Cc2ccc(C)cc2)C(=O)N(C)CC(=O)N[C@@H](CCc2cc(F)c(C(F)(F)F)c(F)c2)C(=O)N2C[C@H](OCC)C[C@H]2C(=O)NC2(CCC2)C(=O)N(C)[C@@H](C2CCCC2)C(=O)N(C)[C@H](C(=O)N(C)C)CC(=O)N1C [PP2550]
[1]
  NRAS/KRAS (ratio of KD value with respect to GDP-bound NRAS wild-type protein to KD value with respect to KRAS): A (a compound having 10 or more and less than 20 is denoted as A)
[2]
  HRAS/KRAS (ratio of KD value with respect to GDP-bound HRAS wild-type protein to KD value with respect to KRAS): B (a compound having 3 or more and less than 10 is denoted as B)

## CCC[C@H]1C(=O)N[C@@H](CC(C)C)C(=O)N2C[C@@H](OC)C[C@H]2C(=O)N(C)[C@H]2C/C=C\CCN(C2=O)[C@@H](Cc2ccc(C)cc2)C(=O)N(C)CC(=O)N[C@@H](CCc2cc(F)c(C(F)(F)F)c(F)c2)C(=O)N2C[C@H](OCC)C[C@H]2C(=O)NC2(CC(C)(C)C2)C(=O)N(C)[C@@H](C2CCCC2)C(=O)N(C)[C@H](C(=O)N(C)C)CC(=O)N1C [PP2553]
[1]
  NRAS/KRAS (ratio of KD value with respect to GDP-bound NRAS wild-type protein to KD value with respect to KRAS): A (a compound having 10 or more and less than 20 is denoted as A)
[2]
  HRAS/KRAS (ratio of KD value with respect to GDP-bound HRAS wild-type protein to KD value with respect to KRAS): B (a compound having 3 or more and less than 10 is denoted as B)

## CCC[C@H]1C(=O)N[C@@H](CC(C)C)C(=O)N2C[C@@H](OC)C[C@H]2C(=O)N(C)[C@H]2C/C=C\CCN(C2=O)[C@@H](Cc2ccc(C)cc2)C(=O)N(C)CC(=O)N[C@@H](CCc2ccc(C(F)(F)F)c(OC)c2)C(=O)N2C[C@H](OCC)C[C@H]2C(=O)NC2(CC(C)(C)C2)C(=O)N(C)[C@@H](C2CCCC2)C(=O)N(C)[C@H](C(=O)N(C)C)CC(=O)N1C [PP2554]
[1]
  NRAS/KRAS (ratio of KD value with respect to GDP-bound NRAS wild-type protein to KD value with respect to KRAS): A (a compound having 10 or more and less than 20 is denoted as A)
[2]
  HRAS/KRAS (ratio of KD value with respect to GDP-bound HRAS wild-type protein to KD value with respect to KRAS): B (a compound having 3 or more and less than 10 is denoted as B)

## CCC[C@H]1C(=O)N[C@@H](CC(C)C)C(=O)N2C[C@@H](OC)C[C@H]2C(=O)N(C)[C@H]2C/C=C\CCN(C2=O)[C@@H](Cc2ccc(C)cc2)C(=O)N(C)CC(=O)N[C@@H](CCc2ccc(C(F)(F)F)c(Cl)c2)C(=O)N2C[C@H](OCC)C[C@H]2C(=O)NC2(CC(C)(C)C2)C(=O)N(C)[C@@H](C2CCCC2)C(=O)N(C)[C@H](C(=O)N(C)C)CC(=O)N1C [PP2555]
[1]
  NRAS/KRAS (ratio of KD value with respect to GDP-bound NRAS wild-type protein to KD value with respect to KRAS): A (a compound having 10 or more and less than 20 is denoted as A)
[2]
  HRAS/KRAS (ratio of KD value with respect to GDP-bound HRAS wild-type protein to KD value with respect to KRAS): B (a compound having 3 or more and less than 10 is denoted as B)

## CCC[C@H]1C(=O)N[C@@H]([C@@H](C)CC)C(=O)N2C[C@@H](OC)C[C@H]2C(=O)N(C)[C@H]2C/C=C\CCN(C2=O)[C@@H](Cc2ccc(C)cc2)C(=O)N(C)CC(=O)N[C@@H](CCc2cc(F)c(C(F)(F)F)c(F)c2)C(=O)N2C[C@H](OCC)C[C@H]2C(=O)NC2(CC(C)(C)C2)C(=O)N(C)[C@@H](C2CCCC2)C(=O)N(C)[C@H](C(=O)N(C)C)CC(=O)N1C [PP2556]
[1]
  NRAS/KRAS (ratio of KD value with respect to GDP-bound NRAS wild-type protein to KD value with respect to KRAS): A (a compound having 10 or more and less than 20 is denoted as A)
[2]
  HRAS/KRAS (ratio of KD value with respect to GDP-bound HRAS wild-type protein to KD value with respect to KRAS): B (a compound having 3 or more and less than 10 is denoted as B)

## CCC[C@H]1C(=O)N[C@@H]([C@@H](C)CC)C(=O)N2C[C@@H](OC)C[C@H]2C(=O)N(C)[C@H]2C/C=C\CCN(C2=O)[C@@H](Cc2ccc(C)cc2)C(=O)N(C)CC(=O)N[C@@H](CCc2ccc(C(F)(F)F)c(OC)c2)C(=O)N2C[C@H](OCC)C[C@H]2C(=O)NC2(CC(C)(C)C2)C(=O)N(C)[C@@H](C2CCCC2)C(=O)N(C)[C@H](C(=O)N(C)C)CC(=O)N1C [PP2557]
[1]
  NRAS/KRAS (ratio of KD value with respect to GDP-bound NRAS wild-type protein to KD value with respect to KRAS): A (a compound having 10 or more and less than 20 is denoted as A)
[2]
  HRAS/KRAS (ratio of KD value with respect to GDP-bound HRAS wild-type protein to KD value with respect to KRAS): B (a compound having 3 or more and less than 10 is denoted as B)

## CCC[C@H]1C(=O)N[C@@H]([C@@H](C)CC)C(=O)N(C2CC2)CC(=O)N(C)[C@H]2C/C=C\CCN(C2=O)[C@@H](Cc2ccc(C)cc2)C(=O)N(C)CC(=O)N[C@@H](CCc2ccc(Cl)c(Cl)c2)C(=O)N2C[C@H](OCC)C[C@H]2C(=O)NC2(CC(C)(C)C2)C(=O)N(C)[C@@H](C2CCCC2)C(=O)N(C)[C@H](C(=O)N(C)C)CC(=O)N1C [PP2559]
[1]
  NRAS/KRAS (ratio of KD value with respect to GDP-bound NRAS wild-type protein to KD value with respect to KRAS): A (a compound having 10 or more and less than 20 is denoted as A)
[2]
  HRAS/KRAS (ratio of KD value with respect to GDP-bound HRAS wild-type protein to KD value with respect to KRAS): A (a compound having 10 or more and less than 20 is denoted as A)
